Data on seven molecules can be found in PubChem BioAssay (NCI).

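Results reflect a 48-hour exposure of cells in 96-well plates to compound at five concentrations. GI50 marks 50% less growth. TGI is the concentration that stops growth completely.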 A value given as a limit tells only on which side of the number the result lay.

Test systems include NCI-H522 lung; 786-0 renal; SK-MEL-2 melanoma; SK-MEL-5 melanoma; DU-145 prostate; MDA-MB-231 breast; OVCAR-8 ovarian; ACHN renal; MALME-3M melanoma; U251 CNS.
Assay in all cases: NCI tumour cell line growth inhibition, 48 h

As to `O=C(c1ccc(Cl)cc1)c1cnc(Nc2ccccc2Cl)s1`, the TGI in the test with NCI-H522 lung was 53.1 µM; in the test on 786-0 renal, 39.1 µM; in the test with SK-MEL-2 melanoma it was 30.7 µM; in the test with SK-MEL-5 melanoma, 55.2 µM; in the test on DU-145 prostate it was 48.7 µM; in the test with MDA-MB-231 breast it was over 100 µM. Also, the TGI in the test with OVCAR-8 ovarian was over 71.1 µM; with ACHN renal, 35.3 µM; with MALME-3M melanoma, 46.7 µM; with U251 CNS, over 80.9 µM.

`CC1=CC(=O)[C@@H](O)[C@]2(C)[C@H]3[C@@]4(O)OC[C@]35[C@H]([C@@H](C)[C@H]4O)[C@@H](O)C(=O)O[C@@H]5C[C@@H]12`: the TGI in the test with NCI-H522 lung amounted to 0.7 µM; with 786-0 renal, 2.13 µM; with SK-MEL-2 melanoma it was 1.16 µM; in the test on SK-MEL-5 melanoma it was 0.369 µM; in the test with DU-145 prostate it was 1.69 µM; in the test on MDA-MB-231 breast it was 1.44 µM. Moreover, the TGI in the test on OVCAR-8 ovarian came out at 5.82 µM; in the test on ACHN renal, 5.4 µM; in the test with MALME-3M melanoma it was 0.445 µM; in the test with U251 CNS, 0.379 µM.

For `COC1C(O)=C2C(=O)O/C(C)=C/C=C/C=C/C=C\CC(c3ccccc3)NC(=O)\C=C/C=C\C=C\C=C\[C@@]2(C)[C@@H]1O` (stereo not given in full), the TGI in the test on NCI-H522 lung is under 0.0285 µM; in the test on 786-0 renal, 0.148 µM; in the test with SK-MEL-2 melanoma, 0.15 µM; with SK-MEL-5 melanoma, 0.199 µM; in the test with DU-145 prostate it was 0.178 µM; in the test with MDA-MB-231 breast it was 0.0896 µM. The TGI in the test on OVCAR-8 ovarian was 0.243 µM; in the test on ACHN renal it was 0.122 µM; in the test on MALME-3M melanoma, 0.329 µM; in the test with U251 CNS it was 0.0195 µM.

For `CC1(C)OCCn2c1nc1c(N3CCOCC3)nc(-c3cnc(N)nc3)nc12`, the GI50 is 0.415 µM with NCI-H522 lung; 0.344 µM in the test with 786-0 renal; 0.372 µM in the test on SK-MEL-2 melanoma; 0.346 µM with SK-MEL-5 melanoma; 0.354 µM in the test on DU-145 prostate; 0.457 µM in the test with MDA-MB-231 breast. The GI50 in the test with OVCAR-8 ovarian is 0.404 µM; in the test with ACHN renal, 0.274 µM; in the test on MALME-3M melanoma it was 0.0974 µM; with U251 CNS, 0.673 µM. The TGI in the test on NCI-H522 lung was 40.8 µM; with 786-0 renal, 5.09 µM; in the test with SK-MEL-2 melanoma it was 3.79 µM; in the test with SK-MEL-5 melanoma it was 2.9 µM; in the test on DU-145 prostate, over 100 µM; with MDA-MB-231 breast, over 89.2 µM. Also, the TGI was 11.2 µM with OVCAR-8 ovarian, over 100 µM in the test with ACHN renal, 0.6 µM in the test with MALME-3M melanoma and 34 µM with U251 CNS.

Regarding `Cc1[nH]c2ccccc2c1-c1cc(-c2cc(-c3c(C)[nH]c4ccccc34)on2)no1`, the TGI with NCI-H522 lung, in the test with 786-0 renal, with SK-MEL-2 melanoma, in the test on SK-MEL-5 melanoma, with DU-145 prostate and in the test on MDA-MB-231 breast was over 100 µM in each case. Moreover, the TGI in the test on OVCAR-8 ovarian, in the test on ACHN renal, with MALME-3M melanoma and in the test with U251 CNS was over 100 µM in each case.

As to `CCCn1c(N)c(C(=O)N/N=C(/C)c2cc3cccc(OC)c3o2)sc1=S`, the GI50 was 51.6 µM with NCI-H522 lung; 25.5 µM in the test on 786-0 renal; 53.3 µM with SK-MEL-2 melanoma; 36.1 µM in the test with SK-MEL-5 melanoma; 26.4 µM in the test with DU-145 prostate; over 100 µM with MDA-MB-231 breast. Moreover, the GI50 in the test on OVCAR-8 ovarian was 13.8 µM; in the test on ACHN renal, 46.8 µM; in the test on MALME-3M melanoma, 74 µM; with U251 CNS, 18.3 µM. The TGI with NCI-H522 lung is over 100 µM; in the test on 786-0 renal it was 51.6 µM; in the test on SK-MEL-2 melanoma it was over 100 µM; with SK-MEL-5 melanoma, over 100 µM; in the test on DU-145 prostate, over 100 µM; in the test on MDA-MB-231 breast it was over 100 µM. In addition, the TGI is over 100 µM in the test on OVCAR-8 ovarian, over 100 µM in the test with ACHN renal, over 100 µM with MALME-3M melanoma and 55.5 µM in the test on U251 CNS.

For the molecule `COc1cc(-c2nn(-c3cccc(NC(=O)Nc4ccc(Cl)c(Cl)c4)c3)cc2-c2ccncc2)ccc1Cl`, the GI50 in the test on NCI-H522 lung was 0.811 µM; with 786-0 renal it was 1.31 µM; with SK-MEL-2 melanoma it was 1.14 µM; in the test on SK-MEL-5 melanoma, 0.741 µM; with DU-145 prostate it was 1.52 µM; in the test on MDA-MB-231 breast, 0.698 µM. Moreover, the GI50 in the test on OVCAR-8 ovarian is 0.931 µM; with ACHN renal it was 1 µM; with MALME-3M melanoma, 0.926 µM; in the test with U251 CNS, 0.82 µM. Also, the TGI came to 3.1 µM in the test with NCI-H522 lung; 4.48 µM in the test with 786-0 renal; 2.35 µM with SK-MEL-2 melanoma; 1.49 µM with SK-MEL-5 melanoma; 34.2 µM in the test with DU-145 prostate; 1.92 µM in the test with MDA-MB-231 breast. Moreover, the TGI was 3.61 µM in the test with OVCAR-8 ovarian, over 50 µM in the test on ACHN renal, 2.42 µM in the test with MALME-3M melanoma and 2.47 µM in the test on U251 CNS.
